Converted amounts (≈) assume the structure as drawn. Like-named read-outs stand apart in the source and are kept apart here.
Columns and labels:
[1] = Solubility (stock solvent)
[2] = target: T1, human catalytic PDI A1 a domain (PDIa) (Homo sapiens, UniProt P07237); test: Isothermal titration calorimetry (ITC) binding to PDIa
T1 construct: made in house; host or cells: Escherichia coli BL21-Gold (DE3)
Experimental: All ITC experiments were carried out at 25° C. on MicoCal Auto-ITC200 system (GE Healthcare). […] ITC titration experiments were carried out at 25° C. with 19 injections, 2 μl per injection, and 180 seconds between each injection. The reference cell power was set to 5 μcal/sec. A control experiment was performed for each compound, where each compound was titrated into buffer to account for heat released due to dilution. This background was subtracted from test data before a final dissociation constant was obtained. […] Gibbs free energy, ΔG, was calculated from equation ΔG=ΔH-TΔS. All other parameters, Ka, n, ΔH, ΔS, were determined directly from the titration data.
LOC14 analogs were designed and synthesized as described in the synthetic schemes. The analogs were evaluated for their binding to PDIa using isothermal titration calorimetry (ITC) (results of certain compounds are shown in FIGS. 1A-1E). Next, the analogs were tested for their ability to rescue PC12 cells from mHTT^Q103 induced cell death in a dose-dependent manner (results of certain compounds are shown in FIG. 2).

PC12 mHTTQ103 cells = test: Rescue of PC12 cells from mHTTQ103-induced cell death; type: cell-based, rat; details: for EC50: Rattus norvegicus, PC-12
[3] = Tables 5-13, solvent not given (DMSO in Table 1)
[4] = Tables 5-13, NA = not active, read-out: Kd
[5] = Tables 5-13, PC12 cells, read-out: EC50
[6] = rescue from mHTTQ103 induced cell death
[7] = N/A = not active, read-out: ITC KD
[8] = rescue from mHTTQ103 induced cell death, read-out: PC12 cells EC50

T1 sequence (P07237 18-134): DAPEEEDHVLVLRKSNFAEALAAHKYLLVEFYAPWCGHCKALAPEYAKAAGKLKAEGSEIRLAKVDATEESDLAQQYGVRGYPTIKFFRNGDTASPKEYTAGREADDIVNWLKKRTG

SMILES	Solubility [1]	Solubility [1, 3]	Kd [2, 4]	EC50 (PC12 mHTTQ103 cells; [5])	Max Viability (%) (PC12 mHTTQ103 cells; Tables 5-13, PC12 cells)	PC12 cells Max % Viability (PC12 mHTTQ103 cells; [6])	Kd [2, 7]	EC50 (PC12 mHTTQ103 cells; [8])	Kd ([2]; Tables 6, 11, 12, read-out: Kd (nM), first value of two-site binding)	Kd ([2]; Tables 6, 11, 12, read-out: Kd (nM), second value of two-site binding)	ITC KD ([2]; N/A = not active)	Kd ([2]; ITC assay, read-out: KD)	PC12 cells EC50 (PC12 mHTTQ103 cells; [6])
O=c1c2ccccc2sn1CN1CCCCC1 [LC-1]	100 mM in DMSO	100 mM (≈ 24.8 mg/mL)	107 nM	459 nM	67%	66.57%							
CN1CCN(Cn2sc3ccccc3c2=O)CC1 [LC-2]	100 mM in DMSO	100 mM (≈ 26.3 mg/mL)	134 ± 20 nM	415 nM	63%	63.29%							
O=c1c2ccccc2sn1CN1CCSCC1 [LC-3]		100 mM (≈ 26.6 mg/mL)		463 nM	63%	63.05%	97.1 nM						
O=c1c2ccccc2sn1CN1CCC(CO)CC1 [LC-4]	100 mM in DMSO	100 mM (≈ 27.8 mg/mL)	265 nM	343 nM	60%	60.18%		342 nM					
O=c1c2ccccc2sn1Cc1ccccc1 [LC-5]	100 mM in DMSO	100 mM (≈ 24.1 mg/mL)							43 nM	2270 nM			
O=C(Nc1ccccc1)n1sc2ccccc2c1=O [LC-6]	30 mM in DMSO	30 mM (≈ 8.11 mg/mL)		476 nM	66%	66.47%					KD = N/A irreversible or not active		
O=c1c2ccccc2sn1CN1CCC(O)CC1 [LC-7]	100 mM in DMSO	100 mM (≈ 26.4 mg/mL)		441 nM	72%	71.98%							
CC(C)(C)OC(=O)NC1CCN(Cn2sc3ccccc3c2=O)CC1 [LC-8]			94 nM	384 nM	68%	68.37%		384 nM					
O=c1c2ccccc2sn1CN1CCN(Cn2sc3ccccc3c2=O)CC1 [LC-9]	5 mM in DMSO	5 mM (≈ 2.06 mg/mL)			66%	66.07%	12.7 nM	173 nM				13 nM	
CC(C)(C)OC(=O)N1CCN(Cn2sc3ccccc3c2=O)CC1 [LC-10]	100 mM in DMSO	100 mM (≈ 34.9 mg/mL)	123 ± 34 nM	581 nM	72%	71.82%		561 nM					
O=C(c1ccccc1)n1sc2ccccc2c1=O [LC-11]	100 mM in DMSO	100 mM (≈ 25.5 mg/mL)		> 50000 nM	28%	27.72%					KD = N/A irreversible or not active		
O=c1c2ccccc2sn1CN1CCN(c2ncccn2)CC1 [LC-12]	100 mM in DMSO	100 mM (≈ 32.7 mg/mL)	140 ± 29 nM	416 nM	68%	68.35%							
CC(=O)c1ccc(N2CCN(Cn3sc4ccccc4c3=O)CC2)cc1 [LC-13]	100 mM in DMSO	100 mM (≈ 36.7 mg/mL)	190 ± 27 nM	514 nM	63%	63.14%							
O=C(C1CC1)N1CCN(C(=O)n2sc3ccccc3c2=O)CC1 [LC-14]				> 50000 nM	34%	33.58%					KD = N/A irreversible or not active		
O=C(C1CC1)N1CCN(Cn2sc3ccc(Cl)cc3c2=O)CC1 [LC-15]	15 mM in DMSO	15 mM (≈ 5.28 mg/mL)	114 nM	487 nM	57%	56.92%		487 nM					
CC(C)(C)OC(=O)N1CCC(COc2nsc3ccccc23)CC1 [LC-16]				> 50000 nM	30%	30.24%					KD = N/A irreversible or not active		
O=c1c2ccccc2sn1CN1CCOCC1 [LC-18]	100 mM in DMSO	100 mM (≈ 25 mg/mL)	253 nM	547 nM	69%	69.00%							
O=C(Nc1ccccc1)c1ccccc1S [LC-19]											KD = N/A irreversible or not active		
O=C(NCc1ccc(Br)cc1)c1ccccc1S [LC-20]	100 mM in DMSO	100 mM (≈ 32.2 mg/mL)		> 50000 nM	42%	42.11%					KD = N/A irreversible or not active		
O=C(Nc1ccc(N2CCOCC2)cc1)c1ccccc1S [LC-21]	100 mM in DMSO	100 mM (≈ 31.4 mg/mL)		696 nM	32%	31.98%					KD = N/A irreversible or not active		
O=c1c2ccccc2sn1CN1CCN(Cc2ccccc2)CC1 [LC-22]	100 mM in DMSO	100 mM (≈ 33.9 mg/mL)	173 ± 32 nM	310 nM	62%	61.51%							
O=C(Nc1ccc(Cc2ccccc2)cc1)c1ccccc1S [LC-23]	100 mM in DMSO	100 mM (≈ 31.9 mg/mL)		3880 nM	57%	56.53%					KD = N/A irreversible or not active		
O=c1c2ccccc2sn1-c1ccc(Cc2ccccc2)cc1 [LC-25]	100 mM in DMSO	100 mM (≈ 31.7 mg/mL)		1590 nM	37%	36.83%					KD = N/A irreversible or not active		
O=c1c2ccccc2sn1Cc1ccc(Br)cc1 [LC-26]	100 mM in DMSO	100 mM (≈ 32 mg/mL)		778 nM	38%	37.88%					KD = N/A irreversible or not active		
O=c1c2ccccc2sn1-c1ccc(N2CCOCC2)cc1 [LC-27]				1830 nM	28%	28.37%					KD = N/A irreversible or not active		
C[C@@H](NC(=O)c1ccccc1S)c1ccccc1 [LC-28]	100 mM in DMSO	100 mM (≈ 25.7 mg/mL)		808 nM	56%	55.52%					KD = N/A irreversible or not active		
O=c1[nH]sc2ncccc12 [LC-47, isothiazolo[5,4-b]pyridin-3(2H)-one]				> 50000 nM	36%	36.31%					KD = N/A irreversible or not active		
O=C(C1CC1)N1CCN(Cn2oc3ccccc3c2=O)CC1 [Oxy- LOC14]	100 mM in DMSO					8.16%							Not Active

Source: patent US20220380383A1, “NEUROPROTECTIVE PDI MODULATING SMALL MOLECULES AND METHODS OF USE THEREOF” (THE TRUSTEES OF COLUMBIA UNIVERSITY IN THE CITY OF NEW YORK, priority 2018, published 2022)
